Assay results taken from patent publication US20130035329A1, “THERAPEUTICALLY ACTIVE COMPOSITIONS AND THEIR METHODS OF USE” (priority 2009, published 2013).

Biological target: IDH1 R132H (Homo sapiens, UniProt O75874, R132H)
Assay: High Throughput Screening (HTS) for IDH1 R132H inhibitors (resazurin/NADPH fluorescence assay)
Assay type: biochemical
Conditions: IDH1m; assay similar to Example 1; class symbols
Method: A compound described herein may be an inhibitor of IDH1m. […] B refers to an inhibitor of IDH1m with an IC50 between 1 μM and 50 μM. C refers to an inhibitor of IDH1m with an IC50 greater than 50 μM. D refers to a compound wherein an IC50 is not available.
Assays were conducted in a volume of 76 μl assay buffer (150 mM NaCl, 10 mM MgCl2, 20 mM Tris pH 7.5, 0.03% bovine serum albumin) as follows in a standard 384-well plate: To 25 ul of substrate mix (8 uM NADPH, 2 mM aKG), 1 μl of test compound was added in DMSO. The plate was centrifuged briefly, and then 25 μl of enzyme mix was added (0.2 μg/ml ICDH1 R132H) followed by a brief centrifugation and shake at 100 RPM. The reaction was incubated for 50 minutes at room temperature, then 25 μl of detection mix (30 μM resazurin, […]) was added and the mixture further incubated for 5 minutes at room temperature. The conversion of resazurin to resorufine was detected by fluorescent spectroscopy at Ex544 Em590 c/o 590.

IDH1 R132H, sequence (O75874 whole entry R132H): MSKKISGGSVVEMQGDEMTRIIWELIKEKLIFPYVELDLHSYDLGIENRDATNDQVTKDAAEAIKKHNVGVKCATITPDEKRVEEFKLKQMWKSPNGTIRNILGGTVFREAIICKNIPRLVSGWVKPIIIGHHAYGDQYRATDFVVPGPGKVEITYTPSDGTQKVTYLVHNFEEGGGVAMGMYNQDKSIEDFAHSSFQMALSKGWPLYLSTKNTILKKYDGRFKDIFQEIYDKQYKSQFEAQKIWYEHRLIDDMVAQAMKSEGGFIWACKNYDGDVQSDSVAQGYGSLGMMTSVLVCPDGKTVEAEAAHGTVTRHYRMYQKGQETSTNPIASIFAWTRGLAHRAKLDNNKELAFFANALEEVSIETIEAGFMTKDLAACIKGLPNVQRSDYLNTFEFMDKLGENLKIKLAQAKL

| SMILES | IC50 [µM] |
| --- | --- |
| CCCCc1ccc(NS(=O)(=O)c2ccc(C)c(C(=O)N3CCN(c4ccc(OC)cc4OC)CC3)c2)cc1 | 1 to 50 |
| CCCCc1ccc(OC(=O)Nc2cccc(C(=O)N3CCN(c4ccccc4OC)CC3)c2)cc1 | > 50 |
| CCCCc1ccc(NS(=O)(=O)c2ccc(C)c(C(=O)N3CCN(c4ccccc4CC)CC3)c2)cc1 | < 1 |
| CCOc1ccc(NS(=O)(=O)c2cccc(C(=O)N3CCCN(c4ccccc4OC)CC3)c2)cc1 | > 50 |
| CCCCc1ccc(NS(=O)(=O)c2ccc(C)c(C(=O)N3CCN(c4ccc(OC)c(F)c4)CC3)c2)cc1 | 1 to 50 |
| COc1ccccc1N1CCN(C(=O)c2cc(S(=O)(=O)Nc3ccccc3)ccc2C)CC1 | > 50 |
| CCCCc1ccc(NS(=O)(=O)c2ccc(C)c(C(=O)N3CCN(CCCc4ccccc4)CC3)c2)cc1 | 1 to 50 |
| CCCCc1ccc(C(=O)Nc2cccc(C(=O)N3CCN(c4ccccc4OC)CC3)c2)cc1 | 1 to 50 |
| CCCCc1ccc(C(=O)Nc2ccc(C)c(C(=O)N3CCN(c4ccccc4OC)CC3)c2)cc1 | 1 to 50 |
| CCCCc1ccc(NS(=O)(=O)c2ccc(C)c(C(=O)N3CCN(C(C)c4ccccc4)CC3)c2)cc1 (stereo not shown) | 1 to 50 |
| CCCCc1ccc(NS(=O)(=O)c2ccc(C)c(C(=O)N3CCN(c4ccc(F)c(OC)c4)CC3)c2)cc1 | 1 to 50 |
| COc1ccccc1N1CCCN(C(=O)c2cccc(S(=O)(=O)Nc3ccc(Cl)cc3)c2)CC1 | > 50 |
| CCCCc1ccc(NS(=O)(=O)c2ccc(C)c(C(=O)N3CCN(c4ccccc4Oc4ccccc4)CC3)c2)cc1 | 1 to 50 |
| CCCCc1ccc(NS(=O)(=O)c2ccc(C)c(C(=O)N3CCN(c4ccc(Cl)cc4)CC3)c2)cc1 | 1 to 50 |
| CCCCc1ccc(NS(=O)(=O)c2cccc(C(=O)N3CCN(c4ncc(C(F)(F)F)cc4Cl)CC3)c2)cc1 | 1 to 50 |
| COc1ccccc1N1CCN(C(=O)c2cc(S(=O)(=O)Nc3ccccc3F)ccc2C)CC1 | > 50 |
| CCCCc1ccc(NS(=O)(=O)c2ccc(C)c(C(=O)N3CCN(CCc4ccccc4)CC3)c2)cc1 | 1 to 50 |

Next, values leading:

| IC50 [µM] | SMILES |
| --- | --- |
| 1 to 50 | CCCCc1ccc(NS(=O)(=O)c2ccc(Br)c(C(=O)N3CCN(c4ccccc4OC)CC3)c2)cc1 |
| 1 to 50 | CC(C)(C)c1ccc(NS(=O)(=O)c2cccc(C(=O)N3CCN(c4ccccc4)CC3)c2)cc1 |
| 1 to 50 | CCCCc1ccc(NS(=O)(=O)c2ccc(C)c(C(=O)N3CCN(c4ccc(OC)c(OC)c4)CC3)c2)cc1 |
| > 50 | COc1ccc(NS(=O)(=O)c2cccc(C(=O)N3CCCN(c4ccccc4OC)CC3)c2)cc1 |
| 1 to 50 | COc1ccccc1N1CCN(C(=O)c2cc(S(=O)(=O)Nc3ccc(CCc4ccccc4)cc3)ccc2C)CC1 |
| 1 to 50 | CCCCc1ccc(NS(=O)(=O)c2ccc(C)c(C(=O)N3CCN(c4ccccc4-c4ccccc4)CC3)c2)cc1 |
| 1 to 50 | CCCCc1ccc(NS(=O)(=O)c2ccc(C)c(C(=O)N3CCN(c4ccc(OCCC)cc4)CC3)c2)cc1 |
| 1 to 50 | CCCCc1ccc(NS(=O)(=O)c2ccc(C)c(C(=O)N3CCN(c4ccccc4Br)CC3)c2)cc1 |
| > 50 | CCCCc1ccc(NS(=O)(=O)c2ccc(Cl)c(C(=O)N3CCN(C(C)=O)CC3)c2)cc1 |
| 1 to 50 | CCCCc1ccc(NS(=O)(=O)c2ccc(C)c(C(=O)N3CCN(C(=O)C4CC4)CC3)c2)cc1 |
| 1 to 50 | CCCCc1ccc(NS(=O)(=O)c2cccc(C(=O)N3CCN(c4ccnc5[nH]ccc45)CC3)c2)cc1 |
| 1 to 50 | COc1ccccc1N1CCCN(C(=O)c2cccc(S(=O)(=O)Nc3ccccc3F)c2)CC1 |
| 1 to 50 | COC(=O)C(C)Nc1ccc(NS(=O)(=O)c2ccc(C)c(C(=O)N3CCN(c4ccccc4OC)CC3)c2)cc1 (stereo not shown) |
| 1 to 50 | CCCCc1ccc(NS(=O)(=O)c2ccc(C)c(C(=O)N3CCN(C(=O)OC(C)C)CC3)c2)cc1 |
| 1 to 50 | COCOc1ccc(NS(=O)(=O)c2ccc(C)c(C(=O)N3CCN(c4ccccc4C)CC3)c2)cc1 |
| 1 to 50 | CCOC(=O)COc1ccc(NS(=O)(=O)c2ccc(C)c(C(=O)N3CCN(c4ccccc4OC)CC3)c2)cc1 |
| 1 to 50 | COc1ccccc1N1CCN(C(=O)c2cc(S(=O)(=O)Nc3ccc(OCC4CC4)cc3)ccc2C)CC1 |
